Results taken from BindingDB's records for doi:10.7270/Q2R78CMH (Sanford-Burnham Center for Chemical Genomics, 2008).

Target: T1, Bcl-2-like protein 10 (Homo sapiens, UniProt Q9HD36)
T1 sequence (Q9HD36 whole entry): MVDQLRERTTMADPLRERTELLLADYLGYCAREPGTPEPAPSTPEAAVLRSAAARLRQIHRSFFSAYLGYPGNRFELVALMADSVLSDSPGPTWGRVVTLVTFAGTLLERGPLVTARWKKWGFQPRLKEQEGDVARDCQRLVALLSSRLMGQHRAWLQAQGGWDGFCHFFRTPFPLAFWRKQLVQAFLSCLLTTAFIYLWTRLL
Assay: EC50 profiling of BCL2L10 inhibition in a biochemical TR3-derived FP format (AID 1243)

Compound | EC50
C=c1c(C#N)c2[nH]c(N)c(C#N)c(C)c-2c1=Cc1ccc(-c2ccc(C(=O)O)c(Cl)c2)o1 | 1.65 µM
O=C(O)c1cccc(-c2ccc(CN=Nc3ccc([N+](=O)[O-])cn3)o2)c1 | 9.64 µM
Clc1ccc(C2CC(c3ccccc3)=Nc3ncnn32)cc1 (stereo unspecified) [7-(4-chlorophenyl)-5-phenyl-1,7-dihydro-[1,2,4]triazolo[1,5-a]pyrimidine] | 14.2 µM
COc1ccccc1NC(=O)C1=C(C)N=C(SCC(=O)c2ccc(Br)cc2)C(C#N)C1c1ccco1 (stereo unspecified) [BIM-0025022.P001] | 6.24 µM
O=C1c2ccccc2C(O)C12N=Nc1n[nH]c(=S)n1N2 (stereo unspecified) [BIM-0026580.P001] | 23.8 µM
O=C1C=CC(=O)C(C(C=NCc2ccccc2)[N+](=O)[O-])=C1 (stereo unspecified) [BIM-0048185.P001] | 5.7 µM
